# Paper PMC7734798 (ACS Medicinal Chemistry Letters, 2020)
# Columns and labels:
# [1] = tested on: primary rat cerebellar granule neurons (CGNs); experiment: Neuroprotection assay: glutamate/glycine excitotoxicity in differentiated CGNs (MTT); type: cell-based; conditions: CGNs 8 DIV
# Protocol: Several lines of evidence point to MS as not only an inflammatory but also a neurodegenerative disease. Thus, neuroprotective agents may hold promise for MS therapy.[32] […] Thus, to test the neuroprotective capability of 1 and 2, we used a glutamate excitotoxicity model of primary cultural neurons. At day 8 in vitro (8 DIV), CGNs were pretreated with the compounds for 6 h, before adding 100 μM glutamate/10 μM glycine insult for further 24 h. […] Furthermore, while reference compounds (alone and in combination) increase glutamate/glycine excitotoxicity at higher doses, 1 was not toxic even at the highest concentration tested (25 μM). […]
# committee (Protocol n° 17-72-1212) and performed according to Italian and European Community laws on the use of animals for experimental purposes. […]
# heat-inactivated FBS (Aurogene), 2 mM glutamine, 100 μM gentamicin sulphate and 25 mM KCl (all from Sigma-Aldrich). […] The viability of CGNs exposed to increasing concentrations of the studied compounds (0, 5, 10 and 25 μM) for 24 h was evaluated through the MTT assay. […] Following a 20 min incubation at 37 °C in the dark, the MTT precipitate was dissolved in 0.1 M Tris-HCl pH 7.5 buffer containing 5% Triton X-100 (all from Sigma-Aldrich) and absorbance was read at 570 nm in a multiplate spectophotometric reader (Bio-Rad). […] After 24 hours, neuronal survival has been evaluated through MTT assay. […]
# [2] = tested on: CNPase; experiment: Oli-Neu differentiation marker CNPase expression (Western blot); type: cell-based, mouse; conditions: Oli-Neu cells, 5 μM, 72 h
# Description: OPC proliferation and migration to the CNS injury site as well as their differentiation are critical steps toward remyelination in MS. HDAC activity plays a crucial role in OPC proliferation/differentiation; therefore, HDAC modulation is widely considered a promising therapeutic target for MS.[30] […] Therefore, we tested the effect of our compounds on OPC proliferation and differentiation, through cell counting, measure of filaments, and analysis of proliferation/differentiation markers (Figure 7). […]
# After 24 hours, the viability was evaluated through the MTT assay. […]
# 48 hours, for cell counting and measure of filaments, 5 random images for each condition were acquired with an Eclipse TS100 (Nikon) microscope using a 10X objective. Cells number and filament length were measured with Fiji ImageJ2 software. After 48 hours for proliferation and 72 hours of treatment for differentiation analysis, cells were lysed in ice-cold lysis buffer (50 mM Tris-HCl pH 7.4, 1% SDS, 0.05% protease inhibitor cocktail; all from Sigma-Aldrich) and protein content was determined by using the Lowry method. […]
smiles,measurement,setting,value
CC/C=C\C/C=C\C/C=C\CCCCCCCC(=O)NCCNC(=O)C(CCC)CCC [compound 1],toxicity under glutamate/glycine excitotoxicity at higher doses,"[1]; 100 μM glutamate/10 μM glycine, highest concentration tested 25 μM",not toxic
same,neuroprotection against glutamatergic excitotoxicity (MTT),"[1]; 6 h pretreatment + 24 h with 100 μM glutamate/10 μM glycine, especially at 5 and 10 μM",more neuroprotective
same,"expression of CNPase, marker of differentiation",[2],significant increase
